The source of these data is ChEMBL document CHEMBL4732235, “Design, synthesis, and evaluation of transition-state analogs as inhibitors of the bacterial quorum sensing autoinducer synthase CepI” (Bioorg Med Chem Lett, 2021).

Active and inactive are the calls of the source. The rule behind the calls is not given here.

Test [1] has as its system Burkholderia cenocepacia. In words: Inhibition of Burkholderia cenocepacia synthase CepI assessed as liberation of ACP thiol using SAM as substrate at 100 uM by DCPIP method.
The nature of test [2]: Inhibition of Burkholderia cenocepacia synthase CepI assessed as liberation of ACP thiol using SAM as substrate by DCPIP method.
For test [3], the system named is Burkholderia cenocepacia. In words: Binding affinity to Burkholderia cenocepacia synthase CepI assessed as stabilization of protein in presence of trypsin at 50 uM by standard colorimetric trypsin assay.

On to `CCCCCCCC(=O)N[C@H]1C[C@@H](CSC[C@H]2O[C@@H](n3cnc4c(N)ncnc43)[C@H](O)[C@@H]2O)OC1=O`, for which the inhibition result in test [1] is “Active”. For the same compound, in test [2], the IC50 (usually the point on the concentration scale where inhibition reaches its midpoint) is 1 µM. Besides, the outcome in test [3] was Active.
As to `CCCCCCCC(=O)N[C@@H]1C[C@H](CSC[C@H]2O[C@@H](n3cnc4c(N)ncnc43)[C@H](O)[C@@H]2O)OC1=O`, in test [1], the inhibition entry is “Active”. Moreover, the IC50 in test [2] came to 100 µM.
